# Reference: the supplement of paper PMC10307832
# Legend:
# Experiment in all cases: relative viability (nuclei count vs DMSO), 5 days (fraction); higher = more cells survive
# [1] = system: 201T
# How it was run: (§1)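 Lung cancer cell lines in 1536-well plates got either a single drug or a fixed anchor-drug dose together with five library-drug doses (not always all listed) in √10 steps, by pin tool, on the day after seeding. Nuclei were counted after 5 days, and relative viability is the treated-to-vehicle ratio of nuclei counts. Values are medians of duplicate plates.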
# [2] = system: BEN
# How it was run: as §1
# [3] = system: COR-L 105
# How it was run: as §1
# [4] = system: EKVX
# How it was run: as §1
# [5] = system: EPLC-272H
# How it was run: as §1
# [6] = system: H3255
# How it was run: as §1
# [7] = system: HCC-44
# How it was run: as §1
# [8] = system: HCC-827
# How it was run: as §1
# [9] = system: HOP-62
# How it was run: as §1
# [10] = system: LCLC-97TM1
# How it was run: as §1
# [11] = system: LOU-NH91
# How it was run: as §1
# [12] = system: LU99A
# How it was run: as §1
# [13] = system: NCI-H1395
# How it was run: as §1
# [14] = system: NCI-H1437
# How it was run: as §1
# [15] = system: NCI-H1666
# How it was run: as §1
# [16] = system: NCI-H1975
# How it was run: as §1
# [17] = system: NCI-H2085
# How it was run: as §1
# [18] = system: NCI-H2087
# How it was run: as §1
# [19] = system: NCI-H2126
# How it was run: as §1
# [20] = system: NCI-H358
# How it was run: as §1
# [21] = system: NCI-H647
# How it was run: as §1
# [22] = system: PC-3 [JPC-3]
# How it was run: as §1
# [23] = system: SW 1573
# How it was run: as §1
smiles,measurement,setting,value
COc1cc(N2CCC(C(N)=O)CC2)ccc1Nc1nc(N)c(Cl)c(Nc2ccccc2S(=O)(=O)C(C)C)n1 [HG-5-88-01] + C[C@]1(O)C[C@@H](c2nc(-c3ccc4ccc(-c5ccccc5)nc4c3)c3c(N)nccn32)C1 [Linsitinib] (partner 1 µM),relative viability,[1]; first compound 0.04 µM,1.02
same,relative viability,[1]; first compound 0.1265 µM,1.04
same,relative viability,[1]; first compound 0.4 µM,1.04
same,relative viability,[1]; first compound 1.265 µM,0.945
same,relative viability,[1]; first compound 4 µM,1.19
same,relative viability,[2]; first compound 0.04 µM,0.817
same,relative viability,[2]; first compound 0.1265 µM,0.968
same,relative viability,[2]; first compound 0.4 µM,0.899
same,relative viability,[2]; first compound 1.265 µM,0.767
same,relative viability,[2]; first compound 4 µM,1.17
same,relative viability,[3]; first compound 0.04 µM,0.921
same,relative viability,[3]; first compound 0.1265 µM,0.966
same,relative viability,[3]; first compound 0.4 µM,1.04
same,relative viability,[3]; first compound 1.265 µM,0.961
same,relative viability,[3]; first compound 4 µM,0.751
same,relative viability,[4]; first compound 0.04 µM,0.972
same,relative viability,[4]; first compound 0.1265 µM,1.11
same,relative viability,[4]; first compound 0.4 µM,0.889
same,relative viability,[4]; first compound 4 µM,1.03
same,relative viability,[5]; first compound 0.04 µM,1.09
same,relative viability,[5]; first compound 0.1265 µM,1.25
same,relative viability,[5]; first compound 0.4 µM,1.38
same,relative viability,[5]; first compound 1.265 µM,1.02
same,relative viability,[5]; first compound 4 µM,0.264
same,relative viability,[6]; first compound 0.04 µM,1.03
same,relative viability,[6]; first compound 0.1265 µM,0.913
same,relative viability,[6]; first compound 0.4 µM,0.939
same,relative viability,[6]; first compound 4 µM,0.734
same,relative viability,[7]; first compound 0.04 µM,0.806
same,relative viability,[7]; first compound 0.1265 µM,0.672
same,relative viability,[7]; first compound 0.4 µM,0.56
same,relative viability,[7]; first compound 1.265 µM,0.648
same,relative viability,[7]; first compound 4 µM,0.751
same,relative viability,[8]; first compound 0.04 µM,0.953
same,relative viability,[8]; first compound 0.1265 µM,1.04
same,relative viability,[8]; first compound 0.4 µM,0.934
same,relative viability,[8]; first compound 1.265 µM,0.955
same,relative viability,[8]; first compound 4 µM,0.69
same,relative viability,[9]; first compound 0.04 µM,0.978
same,relative viability,[9]; first compound 0.1265 µM,1.04
same,relative viability,[9]; first compound 0.4 µM,0.821
same,relative viability,[9]; first compound 1.265 µM,0.938
same,relative viability,[9]; first compound 4 µM,1.23
same,relative viability,[10]; first compound 0.04 µM,0.183
same,relative viability,[10]; first compound 0.1265 µM,0.201
same,relative viability,[10]; first compound 0.4 µM,0.18
same,relative viability,[10]; first compound 1.265 µM,0.152
same,relative viability,[10]; first compound 4 µM,0.158
same,relative viability,[11]; first compound 0.04 µM,1
same,relative viability,[11]; first compound 0.1265 µM,0.916
same,relative viability,[11]; first compound 0.4 µM,0.841
same,relative viability,[11]; first compound 1.265 µM,0.609
same,relative viability,[11]; first compound 4 µM,0.659
same,relative viability,[12]; first compound 0.04 µM,0.552
same,relative viability,[12]; first compound 0.1265 µM,0.535
same,relative viability,[12]; first compound 0.4 µM,0.531
same,relative viability,[12]; first compound 1.265 µM,0.578
same,relative viability,[12]; first compound 4 µM,0.589
same,relative viability,[13]; first compound 0.04 µM,1.13
same,relative viability,[13]; first compound 0.1265 µM,1.02
same,relative viability,[13]; first compound 0.4 µM,1.07
same,relative viability,[13]; first compound 1.265 µM,0.856
same,relative viability,[13]; first compound 4 µM,1.09
same,relative viability,[14]; first compound 0.04 µM,1.04
same,relative viability,[14]; first compound 0.1265 µM,1.04
same,relative viability,[14]; first compound 0.4 µM,0.926
same,relative viability,[14]; first compound 1.265 µM,0.996
same,relative viability,[14]; first compound 4 µM,1.18
same,relative viability,[15]; first compound 0.04 µM,0.958
same,relative viability,[15]; first compound 0.1265 µM,0.882
same,relative viability,[15]; first compound 0.4 µM,0.93
same,relative viability,[15]; first compound 1.265 µM,0.76
same,relative viability,[15]; first compound 4 µM,0.581
same,relative viability,[16]; first compound 0.04 µM,0.995
same,relative viability,[16]; first compound 0.1265 µM,1
same,relative viability,[16]; first compound 0.4 µM,0.682
same,relative viability,[16]; first compound 1.265 µM,0.859
same,relative viability,[16]; first compound 4 µM,0.497
same,relative viability,[17]; first compound 0.04 µM,0.913
same,relative viability,[17]; first compound 0.1265 µM,0.924
same,relative viability,[17]; first compound 0.4 µM,0.809
same,relative viability,[17]; first compound 1.265 µM,0.748
same,relative viability,[17]; first compound 4 µM,0.92
same,relative viability,[18]; first compound 0.04 µM,0.85
same,relative viability,[18]; first compound 0.1265 µM,1.07
same,relative viability,[18]; first compound 0.4 µM,0.912
same,relative viability,[18]; first compound 1.265 µM,0.964
same,relative viability,[18]; first compound 4 µM,0.888
same,relative viability,[19]; first compound 0.04 µM,0.641
same,relative viability,[19]; first compound 0.1265 µM,0.76
same,relative viability,[19]; first compound 0.4 µM,0.721
same,relative viability,[19]; first compound 1.265 µM,0.69
same,relative viability,[19]; first compound 4 µM,0.716
same,relative viability,[20]; first compound 0.04 µM,0.696
same,relative viability,[20]; first compound 0.1265 µM,0.707
same,relative viability,[20]; first compound 0.4 µM,0.625
same,relative viability,[20]; first compound 1.265 µM,0.484
same,relative viability,[20]; first compound 4 µM,0.387
same,relative viability,[21]; first compound 0.04 µM,1.21
same,relative viability,[21]; first compound 0.1265 µM,1.38
same,relative viability,[21]; first compound 1.265 µM,1.08
same,relative viability,[21]; first compound 4 µM,1.12
same,relative viability,[22]; first compound 0.04 µM,0.964
same,relative viability,[22]; first compound 0.1265 µM,0.956
same,relative viability,[22]; first compound 0.4 µM,0.947
same,relative viability,[22]; first compound 1.265 µM,0.944
same,relative viability,[22]; first compound 4 µM,0.83
same,relative viability,[23]; first compound 0.04 µM,0.796
same,relative viability,[23]; first compound 0.1265 µM,0.961
same,relative viability,[23]; first compound 0.4 µM,0.855
same,relative viability,[23]; first compound 1.265 µM,0.704
same,relative viability,[23]; first compound 4 µM,0.83
